Data from ChEMBL document CHEMBL1150319, “Activity-based probe for specific photoaffinity labeling gamma-aminobutyric acid B (GABAB) receptors on living cells: design, synthesis, and biological evaluation” (J Med Chem, 2008).
Activity calls are given as the source filed them. The rule behind the calls is not given here.

How the values were obtained:
[1] = system: CHO; experiment: Binding affinity at intracellular GABA B receptor expressed in CHO cells at 1uM before 15 mins of UV irradiation by […] microscopy based photoaffinity labeling; type: cell-based
[2] = system: CHO; experiment: Binding affinity at intracellular DsRed2-tagged GABA B receptor expressed in CHO cells at 1 uM by fluorescence confocal microscopy based photoaffinity labeling; type: cell-based
[3] = Antagonist activity at GABA B receptor expressed in HEK293 cells assessed as inhibition of GABA-induced IP production after 15 mins; type: functional, cell-based; settings: HEK293, 0.25 h
[4] = system: CHO; experiment: Displacement of CGP-64213 from GABA B1-ASA receptor mutant expressed in CHO cells at 1 uM; type: cell-based
[5] = system: CHO; experiment: Increase in labeling efficiency in CHO cells expressing GABA B1-ASA receptor mutant after UV irradiation; type: cell-based
[6] = system: CHO; experiment: Binding affinity at cell surface GABA B receptor expressed in CHO cells at 1 uM before 15 mins of UV irradiation by […] microscopy based photoaffinity labeling
[7] = system: HEK293; experiment: Antagonist activity at GABA B receptor expressed in HEK293 cells assessed as inhibition of GABA-induced IP production at 10 uM after 15 mins; type: functional, cell-based

SMILES | Activity [1] | Activity [2] | IC50 [3] [µM] | Activity [4] | Activity [5] | Activity [6] | Activity [7]
CC1=CC(C)=[N+]2C1=C(CCCC(=O)NCc1cn(CC(=O)NCCOCCOCCOc3cc(C4(C(F)(F)F)N=N4)ccc3C(=O)NCCCCCP(=O)(O)C[C@@H](O)CN[C@H](C)c3cccc(C(=O)O)c3)nn1)c1c(C)cc(C)n1[B-]2(F)F | inactive | inactive | 1.03 | Active | Active | Active | 
CC1=CC(C)=[N+]2C1=C(CCCC(=O)NCCOCCOCCOc1cc(C3(C(F)(F)F)N=N3)ccc1CO)c1c(C)cc(C)n1[B-]2(F)F |  |  |  | inactive |  |  | inactive
